Consider 5 molecules from patent US7048951B1, “Systems and methods for topical treatment with nitric oxide” (Nioxx, LLC, priority 1998, dated 2006).

A short description of data set [1]: pKa of acids. It counts as physicochemical.
The conditions of data set [2]: cited from earlier work.
[3] abbreviates: preservative concentration 0.18% in carbomer gel (propylparaben 0.05% listed in next row).
The mark [4] stands for this setting: preservative concentration 0.01% in carbomer gel.
[5] abbreviates: preservative concentration 0.1% in carbomer gel.

Like-named read-outs stand apart in the source and are kept apart here.

`O=C(O)/C=C\C(=O)O` [Maleic acid]: in data set [1], the “acid strength relative to nitrous acid” value is “about 30 times”.

With `COC(=O)c1ccc(O)cc1` [Methylparaben], in data set [2] (setting [3]), the Appearance entry is “Clear” and the Compatible result was “Yes”.

As to `O=C([O-])c1ccccc1.[Na+]` [Sodium Benzoate], in data set [2] (setting [4]), the Appearance entry is on record as “Clear” and the Compatible result is “Yes”. Also, in data set [2] (setting [5]), the Appearance result is on record as “Cloudy” and the Compatible result is reported as “No”.

With `C[CH2][Hg][S]c1ccccc1C(=O)[O-].[Na+]` [Thiomersal], the Appearance entry in data set [2] (setting [4]) and in data set [2] (setting [5]) was “Clear” in each case. Further, the Compatible result in data set [2] (setting [4]) and in data set [2] (setting [5]) was “Yes” each time.

Take Benzalkonium Chloride: the values for the Appearance result in data set [2] (setting [4]) and in data set [2] (setting [5]) were “Clear” and “Cloudy”, respectively. In addition, the Compatible entry is given as “Yes” in data set [2] (setting [4]) and “No” in data set [2] (setting [5]).
